{"source": "patent US8815954B2", "about": "“Arginine heteromers for topical administration” (Revance Therapeutics, Inc., priority 2005, dated 2014)", "key": {"murine skin": {"test_system": "murine skin", "experiment": "In vivo cumulative efficacy for topical delivery of arginine across murine skin; morphological assessment of treated skin sections by image analysis", "parameters": "species or system C57 black 6 female mice", "conditions": "mice, topical 200 μl once daily for 7 days in Cetaphil cream, dorsal skin harvested 24 hours after last treatment, H&E image analysis", "procedure": "In vivo cumulative efficacy for topical delivery of arginine across murine skin.\nThe potential for a heteromer of arginine to cross the skin and exert previously characterized benefits related to arginine/NOS activity was evaluated by examining arginine-vitamin E and arginine-palmitate heteromers in an animal model system. While both heteromers improve the lipid solubility relative to arginine alone and should increase transdermal flux, the vitamin E heteromer is also expected to afford additional functional benefits due to its anti-oxidant properties.\n1. Arg-palmitate: 0.9996 g of arginine+palmitate were dissolved in 6 ml of jojoba oil (Essential Wholesale, Portland, Oreg.), then diluted with 6 ml (1:1 dilution) of Cetaphil cream.\n2. Arg-vitamin E: 0.419 g of arginine+vitamin E were dissolved in 6 ml of deionized H2O then diluted with 6 ml (1:1 dilution) of Cetaphil cream.\nDaily-dose topical treatments of metered 200 μl aliquots were prepared for treatments of Arg-palmitate, Arg-vitamin E, or Cetaphil control in 650 μl microcentrifuge tubes.\nAnimals (C57 black 6 female mice, Charles River Laboratories, Wilmington, Mass.) were anesthetized via inhalation of isoflurane mixed with oxygen and then injected with 0.5 ml rodent anesthetic cocktail (3.75 ml of 100 mg/ml Ketamine, 3.00 ml of 20 mg/ml Xylazine, and 23.25 ml of saline) intraperitoneally. The animals were supplemented with isoflurane as necessary. Treatment groups contained 4 mice each and the control group 3 mice. After being anesthetized, a 2.0 cm×2.0 cm dose site on the dorsum of each mouse was carefully shaved with a hair clipper on the first day of treatment application and animals underwent depilatory treatment in the same dorsal region using a rosin mixture (Surgiwax, Ardell International, Los Angeles, Calif.). Animals were anesthetized via inhalation of isoflurance only during the application of treatments in Cetaphil moisturizing cream (Galderma, Fort Worth, Tex.) and had metered 200 μl doses of the appropriate treatment applied to the cranial portion of dorsal back skin (selected because the mouse cannot reach this region with mouth or limbs). Animals remained under anesthesia for 1-2 minutes while the appropriate treatment was applied into the skin with small metal spatula. […]\nHigh resolution digital images of each section were obtained using a Retiga 1300B camera (QImaging, Burnaby, BC, Canada). Images were analyzed using Image-Pro Plus analysis software (Media Cybernetics, Silver Springs, Md.) to determine morphological assessment and expressed as positive pixels. Mean and standard error were subsequently determined for each group using Statview software (Abacus, Berkeley, Calif.), with analysis of significance at 95% confidence in Wilcoxon signed ranks."}, "[1]": {"test_system": "human forehead skin perfusion", "experiment": "Human forehead tissue perfusion by Laser Doppler Flowmeter after topical application", "assay_type": "in vivo", "conditions": "lip balm formulation 4.0 mg/ml topical, readings every 30 seconds for 5 minutes from one minute after application (n=55)", "procedure": "Mean and standard error were assessed using Statview (Abacus Concepts, Berkeley, Calif.), with comparisons made using ANOVA repeated measures and significance determined at 95% with post-hoc testing using Fisher PLSD or Scheffe F-test. All procedures and analyses were performed by blinded observers."}}}
{"smiles": "Cc1c(C)c2c(c(C)c1OC(=O)C(N)CCCNC(=N)N)CCC(C)(CCCC(C)CCCC(C)CCCC(C)C)O2", "note": "(centres unmarked) [Arg-Vitamin E]", "values": [{"measurement": "Dermis: dermal thickness, Mean", "setting": "murine skin", "result": 35779, "unit": "positive pixels"}, {"measurement": "Epidermis: epidermal thickness, Mean", "setting": "murine skin", "result": 16475, "unit": "positive pixels"}, {"measurement": "Fat: fat thickness/density, Mean", "setting": "murine skin", "result": 21386, "unit": "positive pixels"}, {"measurement": "Hair: hair length, Mean", "setting": "murine skin", "result": 18316, "unit": "positive pixels"}, {"measurement": "Forehead perfusion, Mean", "setting": "[1]", "result": 8.016, "unit": "tissue perfusion units"}]}
